The values that follow come from a melting point compilation (Tetko et al.).

With `O=C(O)c1ccc(S(=O)(=O)Cl)c(F)c1`, the melting point was in the range of 188 to 190 °C.
To `Nc1ccc2[nH]c(=O)sc2c1` belongs 221 to 223 °C; to `Nc1cc(C(=O)O)ccc1OCC(F)(F)F`, 176 to 178 °C; to `Cc1nn(-c2ccc(Cl)cc2)c(C)c1C(=O)O`, 219 to 221 °C.
As to `COc1ccc(S(=O)(=O)N2CCCCCC2)cc1N`, the melting point lay in the range of 118 to 119 °C.
In the case of `Nc1ccccc1NS(=O)(=O)c1ccc(F)cc1`, the melting point fell in the range of 122 to 124 °C.
As to `O=C(O)c1ccc(S(=O)(=O)Cl)c(Br)c1`, the melting point was 206 to 208 °C.
The compound `Cn1cc(C(=O)O)c(Cl)n1` yielded a melting point of 209 to 211 °C.
To `CC(c1ccccc1)c1ccc(O)cc1` (stereo not given) belongs 57 to 59 °C; to `O=C(CCl)NCc1ccc(F)cc1`, 92 to 95 °C; to `Nc1cncc(Br)c1`, 65 to 69 °C.
The compound `O=C(COc1ccc(F)cc1)N1CCNCC1` showed a melting point of 89 to 91 °C.
Turning to `N#CCCn1cc(C(=O)O)c(-c2cccc([N+](=O)[O-])c2)n1`, the melting point lay in the range of 242 to 244 °C.
To `Cc1c(CN)cnn1C` belongs 38 to 40 °C.
In the case of `COC(=O)Cc1cc(=O)[nH]c(S)n1`, the melting point lay in the range of 185 to 187 °C.
As for `CC(Cl)C(=O)NC12CC3CC(CC(C3)C1)C2` (stereo not given), the figure is 103 to 105 °C.
For `O=C(O)C1CCCN(C(=O)Nc2ccccc2F)C1` (stereo not given), the melting point lay in the range of 139 to 141 °C.
To `CC(=O)NC(C)c1ccc(C(=O)CCl)cc1` (stereo not given) belongs 152 to 156 °C; to `Cc1nc(-c2ccccc2)oc1C(=O)O`, 244 to 246 °C.
Consider `Nc1ccc(CN2C(=O)CNC2=O)cc1`, for which the melting point was in the range of 168 to 170 °C.
`Cc1c(C(=O)O)cnn1-c1ccc(Br)cc1`: the melting point lay within 211 to 213 °C.
The compound `CCCC1CCc2[nH]c(=O)sc2C1` (stereo not given) showed a melting point of 119 to 121 °C.
With `O=C(Nc1ccccc1C(=O)O)c1cccc(Br)c1`, the melting point was 189 to 191 °C.
With `CN(CC(=O)O)C(=O)C1CC1`, the melting point is 112 to 114 °C.
In the case of `O=C(O)c1nc(OCC2CC2)c2ccccc2n1`, the melting point lay in the range of 109 to 111 °C.
As to `Nn1c(S)nnc1C1CCCO1` (stereo not given), the melting point lay in the range of 143 to 147 °C.
For the compound `Cc1nc(-c2ccc(S(=O)(=O)Cl)cc2)co1`, the melting point fell in the range of 84 to 86 °C.
As for `CNCc1nnc[nH]1`, the figure is 91 to 93 °C; as for `Cc1[nH]n(-c2ccc(Cl)c(Cl)c2)c(=N)c1C`, 156 to 158 °C; as for `O=C(O)CCSCc1nc2sc3c(c2c(=O)[nH]1)CCC3`, 227 to 229 °C.
Take `O=C(O)c1cc2ccccc2cc1NS(=O)(=O)c1ccc(F)cc1`: the melting point fell in the range of 203 to 205 °C.
To `CC(C)(C)OC(=O)N1CC(=O)NC(=O)C1` belongs 129 to 131 °C; to `CNS(=O)(=O)c1ccc(C)c(N)c1`, 83 to 85 °C.
As to `CN(CC12CC3CC(CC(C3)C1)C2)C(=O)CCl`, the melting point is 52 to 54 °C.
The compound `O=C(O)c1cn(-c2ccccc2)nn1` returned a melting point of 138 to 140 °C.
To `Cc1ccc2c(C3CCNCC3)c[nH]c2c1` belongs 176 to 178 °C; to `COc1cc(C(=O)O)c(F)cc1N`, 189 to 191 °C; to `O=C(O)c1ccc(S(=O)(=O)C(F)(F)F)cc1`, 244 to 246 °C.
`CC(=O)c1nnn(-c2cccc3ncccc23)c1C` had a melting point of 116 to 118 °C.
To `CC(C)C(NCC(F)(F)F)C(=O)O` (stereo not given) belongs 128 to 130 °C; to `COC(=O)c1n[nH]c(C)c1Cl`, 129 to 131 °C; to `Cn1cc(S(N)(=O)=O)cc1C(=O)O`, 202 to 204 °C.
To `CC(c1ccccc1)C(O)C(=O)O` (stereo not given) belongs 115 to 117 °C.
`Fc1ccc(Oc2ccncc2)c(Br)c1` yielded a melting point of 74 to 76 °C.
To `NC(=NO)c1ccc(CN2CCOCC2)cc1` belongs 158 to 160 °C; to `Cc1c(C(=O)O)c(O)nc2ccccc12`, 254 to 256 °C.
`O=C(O)c1ccccc1C(=O)Nc1ccc(-c2ccccc2)cc1` came in with a melting point of 292 to 294 °C.
The compound `N#CC(NC(=O)c1ccccc1)C1CC1` (stereo not given) had a melting point of 91 to 93 °C.
As for `O=C(CCl)Nc1ccc([N+](=O)[O-])cc1Br`, the figure is 165 to 167 °C; as for `Cc1cc(NC(=O)Nc2cc(C)nn2C(C)(C)C)n(C(C)(C)C)n1`, 235 to 237 °C.
To `NC(=O)c1ccc(-c2csc(N)n2)cc1` belongs 250 to 252 °C; to `CC(Cl)c1nnnn1-c1ccccc1` (stereo not given), 95 to 97 °C.
On to `CC(C)c1ccc(S(=O)(=O)N2CCNCC2)cc1`, for which the melting point is 125 to 127 °C.
The compound `O=C(O)c1ccccc1Sc1ccc(Br)cn1` had a melting point of 183 to 185 °C.
`OCc1cnn(Cc2ccccc2)c1`: the melting point was in the range of 55 to 57 °C.
As for `O=Cc1cscn1`, the figure is 61 to 63 °C.
`O=C(O)CCCNC(=O)c1ccc(Cl)cc1`: the melting point fell in the range of 108 to 110 °C.
Compound `Cc1cc(O)n2ncnc2c1` displayed a melting point of 254 to 256 °C.
Consider `CCOC(=O)c1c(N)c(C#N)cn1C`, for which the melting point fell in the range of 159 to 161 °C.
As for `CCCCc1ccc(NS(=O)(=O)c2cccc(C(=O)O)c2)cc1`, the figure is 206 to 208 °C; as for `O=C(O)c1cnc(-c2ccc(C(F)(F)F)cc2)s1`, 160 to 162 °C.
`O=C(O)CCCNc1nc(-c2ccccc2)cs1` showed a melting point of 155 to 157 °C.
`Cc1cc(C(=O)N2CCCC(C)C2)ccc1N` (stereo not given): the melting point lay in the range of 128 to 130 °C.
To `O=C(O)CCCOc1ccc(Cl)cc1` belongs 114 to 116 °C; to `Cc1cccc(-c2nnc(C(C)Cl)o2)c1` (stereo not given), under 17 °C; to `O=C(O)CCC1Cc2ccccc2NC1=O` (stereo not given), 174 to 176 °C.
As for `O=[N+]([O-])c1ccccc1C(O)c1cccnc1` (stereo not given), the figure is 102 to 104 °C; as for `CC(C)(C)OC(=O)N1CCN(c2ccc(N)nc2)CC1`, 131 to 133 °C; as for `Nc1nc2c(s1)CCCC2`, 30 to 32 °C.
`O=C(O)c1ccccc1OCc1cccc(Br)c1` registered a melting point of 108 to 110 °C.
In turn, `Nc1ccnn1Cc1ccccc1` came in with a melting point of 82 to 84 °C.
Compound `Cn1[nH]c2c(c1=N)CCC2` came in with a melting point of 134 to 136 °C.
Turning to `CCOCc1c(C(=O)O)oc2ccccc12`, the melting point fell in the range of 103 to 105 °C.
In turn, `CCOC(=O)c1csc(Cc2ccc(NC(=O)OC(C)(C)C)cc2)n1` had a melting point of 135 to 137 °C.
With `N#Cc1ccc(I)cc1C#N`, the melting point was in the range of 140 to 142 °C.
To `CCOC(=O)C(=O)CC(=O)c1ccccc1OCC` belongs 91 to 93 °C; to `NCCCN1C(=O)NC2(CCCC2)C1=O`, 129 to 131 °C.
As for `Cc1cc(C#N)ccc1N1CC2CCC1C2` (stereo not given), the figure is 69 to 71 °C; as for `Sc1nnc(CCc2ccccc2)o1`, 92 to 94 °C.
As for `Cc1cc(C=O)c(C)n1CC#N`, the figure is 122 to 124 °C.
As for `Cc1nc(C(=O)N(C)C)ccc1C(=O)O`, the melting point is 136 to 138 °C.
In turn, `Nc1ccnc(Cc2ccccc2)n1` gave a melting point of 143 to 145 °C.
`CC1Cc2cc(S(N)(=O)=O)cc(Cl)c2O1` (stereo not given): the melting point was in the range of 174 to 176 °C.
Turning to `N#Cc1c(NC(=O)CCl)sc2c1CCC2`, the melting point lay within 176 to 178 °C.
`O=C(O)Cc1csc(-c2ccoc2)n1` yielded a melting point of 128 to 130 °C.
`OCc1cccc(F)c1Cl`: the melting point is 34 to 36 °C.
In the case of `O=C(O)CCc1nc2ccccc2c(=O)[nH]1`, the melting point fell in the range of 239 to 241 °C.
To `O=Cc1ccccc1OCC(=O)N1CCCC1` belongs 112 to 114 °C.
Take `Cc1nn(Cc2ccccc2)c(C)c1CN`: the melting point lay within 39 to 41 °C.
Take `O=C(O)CS(=O)(=O)CC(=O)Nc1ccc(Br)cc1`: the melting point fell in the range of 207 to 209 °C.
`CC1N=C(S)N(Cc2ccccc2)C1=O` (stereo not given): the melting point is under 17 °C.
`Cc1cc(C(=O)CCl)c(F)cc1F`: the melting point is 80 to 82 °C.
Consider `O=S1(=O)CCC(S(=O)(=O)Cl)CC1`, for which the melting point was 175 to 177 °C.
To `CC(C)c1nc(C=O)c2ccccn12` belongs 95 to 97 °C; to `CCN(CC)S(=O)(=O)c1cc(C(=O)O)n(C)c1`, 174 to 176 °C.
As for `Cc1nn2cnnc2c(C)c1CCC(=O)O`, the figure is 253 to 255 °C; as for `O=C(O)C=Cc1cn(-c2ccccc2)nc1-c1cccs1`, 224 to 226 °C.
Regarding `Nc1cnn(-c2ccncc2)c1`, the melting point was 152 to 154 °C.
The compound `CC(C)N1C(=O)c2ccc(C(=O)O)cc2S1(=O)=O` displayed a melting point of 238 to 240 °C.
To `O=C(Nc1cnccn1)c1ccc(Br)cc1` belongs 195 to 197 °C; to `Nc1c(I)cc(I)cc1I`, 187 to 189 °C.
In turn, `CC(O)(CN)c1ccc(F)cc1` (stereo not given) gave a melting point of 69 to 71 °C.
As for `CN(C)S(=O)(=O)c1ccccc1C(N)=S`, the figure is 154 to 156 °C; as for `CC1(C)CCc2[nH]c3ccccc3c2C1`, 103 to 105 °C.
For the compound `CN1CC(=O)N(c2ccc([N+](=O)[O-])cc2)C1=O`, the melting point fell in the range of 161 to 163 °C.
As for `CN(CC(=O)O)S(=O)(=O)c1ccc2ccccc2c1`, the figure is 172 to 174 °C.
Regarding `O=C(O)c1ccc(S(=O)(=O)N2CCc3ccccc3C2)cc1`, the melting point is 272 to 274 °C.
As for `CN(C)CCOc1cc(C(=O)O)ccn1`, the figure is 173 to 175 °C.
To `COc1ccc(-n2cnnc2S)cn1` belongs 199 to 201 °C; to `N#Cc1cc([N+](=O)[O-])cnc1Cl`, 119 to 121 °C; to `O=C(Cn1cccn1)NC1CCCCC1`, 116 to 118 °C.
As for `Cc1ccc(NC(=O)CCl)cc1Cl`, the figure is 73 to 75 °C; as for `CCc1cc(=O)[nH]c(-c2ccc(Cl)nc2)n1`, 208 to 210 °C.
Turning to `Cn1[nH]c(=O)c2c(=O)cc[nH]c21`, the melting point was 327 to 329 °C.
Consider `Brc1cccc(-c2ncc[nH]2)c1`, for which the melting point fell in the range of 129 to 131 °C.
Take `N#Cc1cc(Cl)ccc1S(=O)(=O)Cl`: the melting point was in the range of 97 to 99 °C.
As to `COCCNc1c(N)n(Cc2ccccc2)c(=O)[nH]c1=O`, the melting point lay within 209 to 211 °C.
In turn, `Brc1ncn2ccccc12` registered a melting point of 77 to 79 °C.
The compound `c1n[nH]cc1C1CCNCC1` showed a melting point of 149 to 151 °C.
With `CC1(C)C(=O)Nc2ccc(Br)cc21`, the melting point lay within 156 to 158 °C.

The term melting point denotes the temperature, or range, at which the solid turns liquid.
